In patent US20230044602A1, “CANCER SIGNATURES, METHODS OF GENERATING CANCER SIGNATURES, AND USES THEREOF” (EDWARD VIA COLLEGE OF OSTEOPATHIC MEDICINE, priority 2019, published 2023):

Experiments:
NSCLC and GBM = conditions: Refs. 83-85; cited from earlier work
GBM patients = experiment: Disease-free survival of PGS-stratified TCGA GBM patients treated with or without TMZ; type: in vivo, human; conditions: TCGA training cohort
Protocol: Clinical data on adjuvant chemotherapy (ACT) or TMZ administration for the TOGA training cohorts were retrieved from the NCI GDC data portal, and the Buffa hypoxia scores for each patient were retrieved from TOGA PanCancer Atlas through cBioPortal (Ref. 54). Differences in patient benefit from treatment across risk groups were assessed using one-tailed two-sample t-tests on unequal variances and Fisher's Exact Tests. Two-tailed two-sample t-tests on unequal variances assessed the correlation of PGS risk stratification with tumor hypoxia in NSCLC.

[1] = Refs. 3 and 11; cited from earlier work

Cc1cc(Nc2nc(N[C@@H](C)c3ncc(F)cn3)ncc2Cl)n[nH]1 [AZD1480]
efficacy in treating NSCLC and GBM (NSCLC and GBM): promising efficacy

NS(=O)(=O)c1cccc2c1C(=O)c1cccc(O)c1C2=O [LLL12]
efficacy in treating NSCLC and GBM (NSCLC and GBM): promising efficacy

Cn1nnc2c(C(N)=O)ncn2c1=O [TMZ, Temozolomide]
average DFS time (GBM patients; high-risk progression GBM patients (GBM-PGS) treated with TMZ): 10.80 months
average DFS time (GBM patients; low-risk progression GBM patients (GBM-PGS) treated with TMZ): 16.52 months
penetration through the blood-brain barrier [1]: efficient penetration
